ChEMBL document CHEMBL3994622, “Design and synthesis of new RAF kinase-inhibiting antiproliferative quinoline derivatives. Part 2: Diarylurea derivatives” (Eur J Med Chem, 2017)

Columns and labels:
Format in all cases: functional
A498 [1] = assay: Growth inhibition of human A498 cells assessed as cell growth at 0.01 uM incubated for 48 hrs by sulforhodamine B assay relative to control; conditions: A498, 48 h, read-out: Activity
COLO 205 [2] = assay: Growth inhibition of human COLO205 cells assessed as cell growth at 0.1 uM incubated for 48 hrs by sulforhodamine B assay relative to control; conditions: COLO 205, 48 h, read-out: Activity
OVCAR-4 = assay: Growth inhibition of human OVCAR4 cells assessed as cell growth at 10 uM incubated for 48 hrs by sulforhodamine B assay relative to control; conditions: OVCAR-4, 48 h, read-out: Activity
A498 [3] = assay: Growth inhibition of human A498 cells assessed as cell growth at 10 uM incubated for 48 hrs by sulforhodamine B assay relative to control; conditions: A498, 48 h, read-out: Activity
UACC-257 [4] = assay: Growth inhibition of human UACC257 cells assessed as cell growth at 0.1 uM incubated for 48 hrs by sulforhodamine B assay relative to control; conditions: UACC-257, 48 h, read-out: Activity
K562 = assay: Growth inhibition of human K562 cells assessed as cell growth at 10 uM incubated for 48 hrs by sulforhodamine B assay relative to control; conditions: K562, 48 h, read-out: Activity
ACHN = assay: Growth inhibition of human ACHN cells assessed as cell growth at 100 uM incubated for 48 hrs by sulforhodamine B assay relative to control; conditions: read-out: Activity
SNB-75 = assay: Growth inhibition of human SNB75 cells assessed as cell growth at 1 uM incubated for 48 hrs by sulforhodamine B assay relative to control; conditions: SNB-75, 48 h, read-out: Activity
TK-10 [5] = assay: Growth inhibition of human TK10 cells assessed as cell growth at 0.01 uM incubated for 48 hrs by sulforhodamine B assay relative to control; conditions: TK-10, 48 h, read-out: Activity
UACC-257 [6] = assay: Growth inhibition of human UACC257 cells assessed as cell growth at 100 uM incubated for 48 hrs by sulforhodamine B assay relative to control; conditions: UACC-257, 48 h, read-out: Activity
SR [7] = assay: Growth inhibition of human SR cells assessed as cell growth at 0.1 uM incubated for 48 hrs by sulforhodamine B assay relative to control; conditions: read-out: Activity
NCI-H23 = assay: Growth inhibition of human NCI-H23 cells assessed as cell growth at 100 uM incubated for 48 hrs by sulforhodamine B assay relative to control; conditions: NCI-H23, 48 h, read-out: Activity
OVCAR-3 = assay: Growth inhibition of human OVCAR3 cells assessed as cell growth at 10 uM incubated for 48 hrs by sulforhodamine B assay relative to control; conditions: OVCAR-3, 48 h, read-out: Activity
MDA-MB-231 [8] = assay: Growth inhibition of human MDA-MB-231 cells assessed as cell growth at 0.1 uM incubated for 48 hrs by sulforhodamine B assay relative to control; conditions: MDA-MB-231, 48 h, read-out: Activity
A498 [9] = assay: Growth inhibition of human A498 cells assessed as cell growth at 0.1 uM incubated for 48 hrs by sulforhodamine B assay relative to control; conditions: A498, 48 h, read-out: Activity
HOP-62 = assay: Growth inhibition of human HOP62 cells assessed as cell growth at 1 uM incubated for 48 hrs by sulforhodamine B assay relative to control; conditions: HOP-62, 48 h, read-out: Activity
COLO 205 [10] = assay: Growth inhibition of human COLO205 cells assessed as cell growth at 0.3 uM incubated for 48 hrs by sulforhodamine B assay relative to control; conditions: COLO 205, 48 h, read-out: Activity
CAKI-1 = assay: Growth inhibition of human Caki1 cells assessed as cell growth at 30 uM incubated for 48 hrs by sulforhodamine B assay relative to control; conditions: CAKI-1, 48 h, read-out: Activity
IGROV-1 [11] = assay: Growth inhibition of human IGROV1 cells assessed as cell growth at 0.03 uM incubated for 48 hrs by sulforhodamine B assay relative to control; conditions: IGROV-1, 48 h, read-out: Activity
U-251 = assay: Growth inhibition of human U251 cells assessed as cell growth at 0.003 uM incubated for 48 hrs by sulforhodamine B assay relative to control; conditions: U-251, 48 h, read-out: Activity
A549 = assay: Growth inhibition of human A549/ATCC cells assessed as cell growth at 30 uM incubated for 48 hrs by sulforhodamine B assay relative to control; conditions: A549, 48 h, read-out: Activity
NCI-H522 [12] = assay: Growth inhibition of human NCI-H522 cells assessed as cell growth at 0.03 uM incubated for 48 hrs by sulforhodamine B assay relative to control; conditions: NCI-H522, 48 h, read-out: Activity
HL-60(TB) = assay: Growth inhibition of human HL-60(TB) cells assessed as cell growth at 0.03 uM incubated for 48 hrs by sulforhodamine B assay relative to control; conditions: HL-60, 48 h, read-out: Activity
NCI-H522 [13] = assay: Growth inhibition of human NCI-H522 cells assessed as cell growth at 0.003 uM incubated for 48 hrs by sulforhodamine B assay relative to control; conditions: NCI-H522, 48 h, read-out: Activity
M14 [14] = assay: Growth inhibition of human M14 cells assessed as cell growth at 0.3 uM incubated for 48 hrs by sulforhodamine B assay relative to control; conditions: M14, 48 h, read-out: Activity
A498 [15] = assay: Growth inhibition of human A498 cells assessed as cell growth at 3 uM incubated for 48 hrs by sulforhodamine B assay relative to control; conditions: A498, 48 h, read-out: Activity
SR [16] = assay: Growth inhibition of human SR cells assessed as cell growth at 0.3 uM incubated for 48 hrs by sulforhodamine B assay relative to control; conditions: read-out: Activity
NCI-H322M = assay: Growth inhibition of human NCI-H322M cells assessed as cell growth at 0.3 uM incubated for 48 hrs by sulforhodamine B assay relative to control; conditions: read-out: Activity
SN12C = assay: Growth inhibition of human SN12C cells assessed as cell growth at 3 uM incubated for 48 hrs by sulforhodamine B assay relative to control; conditions: read-out: Activity
COLO 205 [17] = assay: Growth inhibition of human COLO205 cells assessed as cell growth at 0.03 uM incubated for 48 hrs by sulforhodamine B assay relative to control; conditions: COLO 205, 48 h, read-out: Activity
IGROV-1 [18] = assay: Growth inhibition of human IGROV1 cells assessed as cell growth at 0.3 uM incubated for 48 hrs by sulforhodamine B assay relative to control; conditions: IGROV-1, 48 h, read-out: Activity
TK-10 [19] = assay: Growth inhibition of human TK10 cells assessed as cell growth at 3 uM incubated for 48 hrs by sulforhodamine B assay relative to control; conditions: TK-10, 48 h, read-out: Activity
UACC-62 = assay: Growth inhibition of human UACC62 cells assessed as cell growth at 0.03 uM incubated for 48 hrs by sulforhodamine B assay relative to control; conditions: UACC-62, 48 h, read-out: Activity
MDA-MB-231 [20] = assay: Growth inhibition of human MDA-MB-231 cells assessed as cell growth at 30 uM incubated for 48 hrs by sulforhodamine B assay relative to control; conditions: MDA-MB-231, 48 h, read-out: Activity
M14 [21] = assay: Growth inhibition of human M14 cells assessed as cell growth at 30 uM incubated for 48 hrs by sulforhodamine B assay relative to control; conditions: M14, 48 h, read-out: Activity
HCT-15 = assay: Growth inhibition of human HCT15 cells assessed as cell growth at 0.003 uM incubated for 48 hrs by sulforhodamine B assay relative to control; conditions: HCT-15, 48 h, read-out: Activity

Row | Structure (SMILES) | growth at 0.01 µM (A498 [1]) [%] | growth at 0.1 µM (COLO 205 [2]) [%] | growth at 10 µM (OVCAR-4) [%] | growth at 10 µM (A498 [3]) [%] | growth at 0.1 µM (UACC-257 [4]) [%] | growth at 10 µM (K562) [%] | growth at 100 µM (ACHN) [%] | growth at 1 µM (SNB-75) [%] | growth at 0.01 µM (TK-10 [5]) [%] | growth at 100 µM (UACC-257 [6]) [%] | growth at 0.1 µM (SR [7]) [%] | growth at 100 µM (NCI-H23) [%] | growth at 10 µM (OVCAR-3) [%] | growth at 0.1 µM (MDA-MB-231 [8]) [%] | growth at 0.1 µM (A498 [9]) [%] | growth at 1 µM (HOP-62) [%] | growth at 0.3 µM (COLO 205 [10]) [%] | growth at 30 µM (CAKI-1) [%] | growth at 0.03 µM (IGROV-1 [11]) [%] | growth at 0.003 µM (U-251) [%] | other results
1 | COc1cc2cc(Oc3ccc(NC(=O)Nc4cc(C(F)(F)F)cc(C(F)(F)F)c4)cc3)c(C)nc2cc1OC | 97 | 100 | -31 | -43 | 110 | -47 | -89 | 75 | 96 | -78 | 97 | -68 | -90 | 98 | 93 | 70 | – | – | – | – | –
2 | Cc1nc2cc(O)c(O)cc2cc1Oc1ccc(NC(=O)Nc2ccc(Cl)c(Cl)c2)cc1 | – | – | – | – | – | – | – | – | – | – | – | – | – | – | – | – | 109 | -2 | 104 | 95 | growth at 30 µM (A549): -10%; growth at 0.03 µM (NCI-H522 [12]): 95%; growth at 0.03 µM (HL-60(TB)): 106%; growth at 0.003 µM (NCI-H522 [13]): 95%; growth at 0.3 µM (M14 [14]): 93%; growth at 3 µM (A498 [15]): 79%; growth at 0.3 µM (SR [16]): 98%; growth at 0.3 µM (NCI-H322M): 110%; growth at 3 µM (SN12C): 92%; growth at 0.03 µM (COLO 205 [17]): 108%; growth at 0.3 µM (IGROV-1 [18]): 103%; growth at 3 µM (TK-10 [19]): 98%; growth at 0.03 µM (UACC-62): 97%; growth at 30 µM (MDA-MB-231 [20]): 6%; growth at 30 µM (M14 [21]): -51%; growth at 0.003 µM (HCT-15): 100%
3 | COc1cc2cc(Oc3ccc(NC(=O)Nc4ccc(Cl)c(Cl)c4)cc3)c(C)nc2cc1OC | 82 | 107 | -8 | -8 | 92 | 15 | -61 | 83 | 106 | -92 | 108 | -59 | -25 | 92 | 86 | 101 | – | – | – | – | –
4 | COc1cc2cc(Oc3ccc(NC(=O)Nc4ccc(Cl)c(C(F)(F)F)c4)cc3)c(C)nc2cc1OC | – | – | – | – | – | – | – | – | – | – | – | – | – | – | – | – | 102 | -55 | 107 | 97 | growth at 30 µM (A549): -80%; growth at 0.03 µM (NCI-H522 [12]): 93%; growth at 0.03 µM (HL-60(TB)): 97%; growth at 0.003 µM (NCI-H522 [13]): 91%; growth at 0.3 µM (M14 [14]): 94%; growth at 3 µM (A498 [15]): 1%; growth at 0.3 µM (SR [16]): 91%; growth at 0.3 µM (NCI-H322M): 112%; growth at 3 µM (SN12C): 21%; growth at 0.03 µM (COLO 205 [17]): 94%; growth at 0.3 µM (IGROV-1 [18]): 117%; growth at 3 µM (TK-10 [19]): 18%; growth at 0.03 µM (UACC-62): 92%; growth at 30 µM (MDA-MB-231 [20]): -74%; growth at 30 µM (M14 [21]): -70%; growth at 0.003 µM (HCT-15): 95%
